Results taken from article PMC9933715 (Antimicrobial Agents and Chemotherapy, 2023).
Entries after “also recorded” stand apart in the source; their conditions may differ. Like-named read-outs stand apart in the source and are kept apart here.

Assays:
[1] = tested on: DENV-R2A (Rluc-expressing DENV, serotype 2 strain 16681); assay: microbe, parasite or virus in culture; assay type: cell-based, Dengue virus
[2] = tested on: ZIKV-R2A (strain FSS13025); assay: microbe, parasite or virus in culture; assay type: cell-based; details: Zika virus, Huh7.5, 48 h
DENV2 16681s [3] = assay: Infectious viral titer by plaque assay, wild-type DENV2 in Huh7.5 cells; assay type: cell-based, Dengue virus; details: 50 μM, MOI 0.1, Huh7.5, 2 days postinfection
ZIKV H/PF/2013 = assay: Infectious viral titer by plaque assay, ZIKV in Huh7.5 cells; assay type: cell-based, Zika virus; details: 50 μM, MOI 0.1, Huh7.5, 2 days postinfection
WNV NY99 = assay: Extracellular infectious titer by plaque assay, WNV in Huh7.5 cells; assay type: cell-based, West Nile virus; details: 50 μM, Huh7.5
HCV, strain JFH-1 = assay type: cell-based, hepatitis C virus; details: 50 μM, JFH-1-Luc, Huh7.5, 2 days
SARS-CoV-2 = assay type: cell-based
MHV-A59 = assay: Infectious viral titer by plaque assay, MHV-A59 in DBT cells; assay type: cell-based, mouse hepatitis virus; details: 50 μM, MOI 0.0001, 1 day postinfection
DENV-R2A = assay type: cell-based, Dengue virus; details: 50 μM
sg-DENV-R2H = assay: Resistance selection with selectable subgenomic replicon sg-DENV-R2H in Huh7.5 cells; assay type: cell-based, Dengue virus; details: 100 µM, hygromycin 500 µg/mL, 31 days of dual selection
DENV2 16681s [4] = assay: Intracellular DENV vRNA (RT-qPCR) and NS4B (western blot) in infected Huh7.5 cells; assay type: cell-based, Dengue virus; details: 50 μM, MOI 0.1, Huh7.5, 2 days postinfection
[5] = target: ZIKV NS3/NS4B interaction (Zika virus, UniProt A0A024B7W1); assay: Coimmunoprecipitation assay of NS3/NS4B interaction; details: unpublished data
ZIKV NS3/NS4B interaction, sequence (A0A024B7W1 1503-2119): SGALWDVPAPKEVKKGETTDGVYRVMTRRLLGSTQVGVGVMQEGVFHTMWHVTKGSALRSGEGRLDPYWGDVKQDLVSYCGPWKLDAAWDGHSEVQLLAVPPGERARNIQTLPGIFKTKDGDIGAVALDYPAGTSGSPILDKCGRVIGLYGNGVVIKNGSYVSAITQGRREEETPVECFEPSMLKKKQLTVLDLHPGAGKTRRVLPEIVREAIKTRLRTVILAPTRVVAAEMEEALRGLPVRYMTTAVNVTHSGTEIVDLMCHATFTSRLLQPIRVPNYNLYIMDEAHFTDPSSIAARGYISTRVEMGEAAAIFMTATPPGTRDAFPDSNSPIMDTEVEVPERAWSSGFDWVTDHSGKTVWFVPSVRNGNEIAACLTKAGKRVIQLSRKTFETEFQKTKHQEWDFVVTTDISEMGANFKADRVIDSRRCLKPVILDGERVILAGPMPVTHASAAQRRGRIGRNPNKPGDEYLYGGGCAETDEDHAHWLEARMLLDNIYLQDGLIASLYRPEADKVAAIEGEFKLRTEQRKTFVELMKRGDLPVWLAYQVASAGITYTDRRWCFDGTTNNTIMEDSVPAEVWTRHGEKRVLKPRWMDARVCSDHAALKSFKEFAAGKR
ZIKV NS3/NS4B interaction, sequence (A0A024B7W1 2270-2520): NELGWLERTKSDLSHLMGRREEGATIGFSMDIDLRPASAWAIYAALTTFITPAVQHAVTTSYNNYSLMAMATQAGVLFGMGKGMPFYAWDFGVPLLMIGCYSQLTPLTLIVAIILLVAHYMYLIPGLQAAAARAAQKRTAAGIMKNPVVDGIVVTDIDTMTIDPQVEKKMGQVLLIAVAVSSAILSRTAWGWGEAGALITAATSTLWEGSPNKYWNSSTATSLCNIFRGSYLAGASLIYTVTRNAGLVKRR

[6] = Cell viability, CellTiter-Glo luminescent assay; details: human, CC50 Huh 7.5, uninfected Huh7.5, 2 days, CellTiter-Glo
Huh7.5 cells = assay: Cell viability, CellTiter-Glo luminescent assay; details: for cell viability / cytotoxicity at the used concentration: Huh7.5
[7] = tested on: DENV vesicle packets (VP); assay: Replication-independent vesicle packet induction (pIRO-D) in Huh7/Lunet-T7 cells, TEM, western blot, immunofluorescence; details: 50 μM for 12 h, pIRO-D-transfected Huh7/Lunet-T7

With `CC(=O)c1ccc2cn[nH]c2c1` [Compound 6A1HI, 6-acetyl-1H-indazole] the “decrease of viral replication (DENV-R2A)” value ([1]; 50 μM, Huh7.5, 2 days postinfection, vs DMSO) was 714 fold, the activity at 50 µM ([1]; Dengue virus, Huh7.5, 48 h, read-out: DENV-R2A replication (Fold DMSO), 6A1HI analogues, test concentration = 50 µM, Huh7.5 cells) was 3.77% and the activity at 50 µM ([1]; Dengue virus, Huh7.5, 48 h, read-out: DENV-R2A replication (fold DMSO) Mean, deconvolution screen, singletons, 50 µM, Huh7.5, 2 days postinfection) was 0.244%. It also gave an activity at 50 µM ([1]; Dengue virus, Huh7.5, 48 h, read-out: DENV-R2A replication (fold DMSO), Table 2, 6A1HI analogues, 50 μM, Huh7.5, 2 days postinfection) of 4%, an EC50 ([1]; Dengue virus, Huh7.5, 48 h, read-out: EC50 DENV-R2A) of 6.5 µM and an EC50 ([2]; read-out: EC50 ZIKV-R2A FSS13025) of 69.3 µM. For the same compound, the activity at 50 µM ([2]; read-out: ZIKV-R2A replication (fold DMSO) Mean) was 29%, the “decrease of infectious DENV particle production / DENV titers” value (DENV2 16681s [3]) was “more than 100 fold” and the “decrease of released infectious virions (plaque assay)” value (DENV2 16681s [3]) was roughly 3 Log10-fold. For the same compound, the “decrease of infectious DENV particle production / DENV titers” value (DENV2 16681s [3]; listed as 6A1H1) was “up to 1,000 fold”, the “reduction in ZIKV viral titers” value (ZIKV H/PF/2013) was 2 fold and the “impact on WNV replication” value (WNV NY99) was “Only moderate impacts (if any)”. For the same compound, the “impact on HCV replication” value (HCV, strain JFH-1) was “Only moderate impacts (if any)”, the “anti-SARS-CoV-2 activity (reduction)” value (SARS-CoV-2) was “less than 10 fold” and the “impact on SARS-CoV-2 (betacoronavirus) replication” value (SARS-CoV-2; 50 μM, Huh7.5) was “Only moderate impacts (if any)”. For the same compound, the “impact on MHV replication” value (MHV-A59) was “Only moderate impacts (if any); also recorded: did not impede”, the “inhibitory activity when added after infection” value (DENV-R2A; added 4 h after infection) was “retain their full inhibitory activity” and the “inhibitory activity when added after infection” value (DENV-R2A; added up to 8 h after infection, read 2 days postinfection) was “retained a strong inhibitory activity”. For the same compound, the “selection of resistant cells (genetic barrier to resistance)” value (sg-DENV-R2H) was “unable to select resistant cells”, the “intracellular levels of DENV vRNA and NS4B” value (DENV2 16681s [4]) was “decrease” and the “formation and stability of ZIKV NS3/NS4B interaction” value [5] was “do not inhibit”. The CC50 at 48 h [6] was greater than 150 µM, the “cell viability / cytotoxicity at the used concentration” value (Huh7.5 cells; 50 μM) was “unaffected” and the “cell viability / cytotoxicity at the used concentration” value (Huh7.5 cells; 50 μM, listed as 6A1H1) was “without any cytotoxicity”. For the same compound, the “Cell viability (Fold DMSO)” value (Huh7.5 cells; 6A1HI analogues, test concentration = 50 µM, Huh7.5 cells) was 0.93 Fold DMSO, the “Cell viability (Fold DMSO)” value (Huh7.5 cells; Table 2, 6A1HI analogues, 50 μM, Huh7.5, 2 days) was 0.93 fold DMSO and the “Cell viability (fold DMSO) Mean” value (Huh7.5 cells; deconvolution screen, singletons, 50 µM, uninfected Huh7.5) was 0.80 fold DMSO. The CC50 (Huh7.5 cells; read-out: CC50 Huh 7.5, uninfected Huh7.5, 2 days, CellTiter-Glo) was 177 µM and the “levels of viral protein NS3 (western blot)” value [7] was “remained unchanged”.
